Assay results published in patent publication US20240034753A1, “THERAPEUTIC PEPTIDES” (COHBAR, INC., priority 2020, published 2024).

Key:
C2C12 Mouse Myoblasts = test: Glucose utilization (glucose remaining in medium); type: cell-based; settings: metformin 1 mM, 18-22 hours
Method: The effect of the peptides on glucose metabolism can be assessed using an assay of glucose utilization in cultured cells such as mouse myoblasts. Peptides were initially prepared as 10 mM stock in DMSO and used at a final concentration of 10 μM (0.1% DMSO). C2C12 mouse myoblast cell line was purchased from American Type Culture Collection (Manassas, VA). C2C12 cultures were maintained at 37° C. in a humidified atmosphere of 5% CO2/95% air with medium changes every second day. C2C12 cells were grown in DMEM (1 g/L glucose) supplemented with 10% FBS with 100 IU/ml penicillin and 100 μg/ml streptomycin. C2C12 cells were seeded at 7,000 cells per well on 96-well plates and cultured to confluence. Once the cell reached confluence the media was changed to DMEM (1 g/L glucose) supplemented with 2% HS with 100 IU/ml penicillin and 100 μg/ml streptomycin and maintained at 37° C. in a humidified atmosphere of 5% CO2/95% air. 5 days post-induction of differentiation fresh DMEM (1 g/L glucose) supplemented with 2% HS with 100 IU/ml penicillin and 100 μg/ml streptomycin was added to cultures. Cells were maintained at 37° C. in a humidified atmosphere of 5% CO2 and 95% air for 5 hours. After 5 hours test peptides at 10 μM or controls (0.5 mM or 1 mM metformin in 1% DMSO) prepared in fresh differentiation medium were added to cells and the cultures were maintained at 37° C. in a humidified atmosphere of 5% CO2/95% air for 18-22 hours. At the end of the incubation culture media was removed from the cells and the remaining glucose concentration was measured using a Glucose Assay kit (Abcam) according to the manufacturer's instructions, using a Cytation 3 plate reader at 570 nm (BioTek, Winooski, VT). Glucose concentrations in the medium were calculated relative to 0.1% DMSO treated control cells. The relative standard deviation of the result for the 0.1% DMSO treated control was <20%. Metformin was used as a positive control for reduction of glucose levels (increased glucose utilization glucose levels for treatment with metformin (1 mM) treatment were <20% of the 0.1% DMSO treated control value. The results are reported in Table 11.

[1] = PrestoBlue cell viability assay; type: cell-based; settings: human; read-out: Cell viability, % of background corrected DMSO control value
Method: The effect of the peptides on cell viability can be assessed in cultured cells using suitable assay of viability such as the PrestoBlue® assay (Thermo Fisher Scientific, Waltham, MA). Peptides were initially prepared as 10 mM stock in DMSO and tested at a final concentration of 10 μM (0.1% DMSO). […] PrestoBlue Assay Reagent was purchased from Thermo Fisher Scientific. A172 human brain glioblastoma cell line was purchased from American Type Culture Collection (Manassas, VA). A172 cells were grown in DMEM supplemented with 10% FBS with 100 IU/ml penicillin and 100 μg/ml streptomycin. Cultures were maintained at 37° C. in a humidified atmosphere of 5% CO2/95% air. A172 cells were seeded at 8,000 cells per well on 96-well plates. […] Cell viability was determined using a PrestoBlue Assay reagent […] according to the manufacturer's instructions. Absorption for each sample well on the plate was measured using a Cytation 3 plate reader at 560 nm and 590 nm (BioTek, Winooski, VT). Activity was calculated relative to 0.1% DMSO untreated control. Treatment with 0.1% DMSO alone was used as the cell viability activity control. The relative standard deviation of the DMSO control was <5%.

[2] = test system: SH-SY5Y Neuroblastoma Cells; test: ATP levels (CellTiter-Glo); type: cell-based, human; settings: staurosporine 1 μM, 18-20 hours
Method: The effect of the peptides on cellular metabolism can be assessed using an assay of ATP levels in cultured cells such as human neuroblastoma cells. Peptides were initially prepared as 10 mM stock in DMSO and used at a final concentration of 10 μM (0.1% DMSO). […] CellTiter-Glo® Assay kit was purchased from Promega. SH-SY5Y human bone marrow neuroblastoma cell line was purchased from American Type Culture Collection (Manassas, VA) and licensed from Memorial Sloan-Kettering Cancer Center (New York, NY). SH-SY5Y cells were grown in DMEM/F12 medium supplemented with 10% FBS with 100 IU/ml penicillin and 100 μg/ml streptomycin. Cultures were maintained at 37° C. in a humidified atmosphere of 5% CO2/95% air. SH-SY5Y cells were seeded at 30,000 cells per well on 96-well plates. […] ATP levels were determined using a CellTiter-Glo Assay kit (Promega) according to the manufacturer's instructions. Luminescence for each sample well on the plate was measured using a Cytation 3 plate reader (BioTek, Winooski, VT). Activity was calculated relative to 0.1% DMSO treated control. The relative standard deviation of the result for the 0.1% DMSO treated control was <5%.

3T3-L1 Mouse Adipocytes = test: Free fatty acid levels in cultured mouse adipocytes stimulated with isoproterenol; type: cell-based; settings: insulin 100 nM, 3 hours with 1 nM isoproterenol
Method: The effect of the peptides on fatty acid metabolism can be assessed using an assay of free fatty acid levels in cultured cells such as mouse adipocytes. Peptides were initially prepared as 10 mM stock in DMSO and used at a final concentration of 10 μM (0.1% DMSO). […] Mouse 3T3-L1 cells purchased from ZenBio were seeded at 3,000 cells per well in 96-well plates in Pre-adipocyte Medium (Zen-Bio) and grown to confluence at 37° C. in a humidified atmosphere of 5% CO2/95% air. Two days after confluence, cells were placed in Adipocyte Differentiation Medium (Zen-Bio) and cultured for three additional days at 37° C. in a humidified atmosphere of 5% CO2/95% air. The culture media was then replaced with Adipocyte Maintenance Medium (Zen-Bio) and the cells maintained for an additional 9-12 days at 37° C. in a humidified atmosphere of 5% CO2/95% air with partial medium replacement every other day. Following 12-15 days of differentiation, test peptides were added at a final concentration of 10 μM in 0.1% DMSO and incubated for 20-22 hours in Adipocyte Maintenance Medium at 37° C. in a humidified atmosphere of 5% CO2/95% air. After 20-22 hours, 1 nM isoproterenol was added to all wells except untreated controls and test peptides were replenished. Insulin at 100 nM was added to control wells. Cells were incubated for 3 hours in Assay Buffer (Zen-Bio) at 37° C. in a humidified atmosphere of 5% CO2/95% air. Free fatty acid concentrations in the media were determined using a Free Fatty Acid Assay kit (Zen-Bio) according to the manufacturer's instructions using a Cytation 3 plate reader at 540 nm (BioTek, Winooski, VT). Absorbance values were corrected for untreated background and expressed relative to isoproterenol treated cells. Treatment with isoproterenol (1 nM) alone was used as the free fatty acid level stimulatory control. The relative standard deviation of the isoproterenol control was <10%. […] Free fatty acid levels for insulin (100 nM) treatment were <5% of the isoproterenol control value.

CN(C)C(=N)N=C(N)N [Metformin, reference compound]
Glucose levels, % of the 0.1% DMSO treated control value (C2C12 Mouse Myoblasts): < 20%

CN[C@@H]1C[C@H]2O[C@@](C)([C@@H]1OC)n1c3ccccc3c3c4c(c5c6ccccc6n2c5c31)C(=O)NC4 [Staurosporine, reference compound]
viability at 1 µM [1]: < 75%
ATP levels, % of the 0.1% DMSO treated control value [2]: < 5%

Insulin [reference compound]
Free fatty acid levels, % of the isoproterenol control value (3T3-L1 Mouse Adipocytes): < 5%
